Earlier results as cited in patent US4339582A (priority 1981, dated 1982).

Conditions: literature, J. Med. Chem. 18, 1126-30 (1975)

c1ccc(C2CCC3CCCCN3C2)cc1 (stereo not shown)
reported activity: antidepressant activity
